# Test results: US4562206A, “Orally effective inotropic compounds” (Key Pharmaceuticals, Inc., priority 1984, dated 1985)
# “Also recorded” adds a separate entry of the source. Counter-ions that a name gives are not always drawn.
# Legend:
# diastolic blood pressure = experiment: Arterial blood pressure change, intravenous infusion, anesthetized open-chest dogs; format: in vivo; conditions: for Blood Pressure, Mean ± S.E. (change in diastolic blood pressure): dose 4 times larger than CC50, i.v.; for effect on blood pressure: i.v.
# Description: To illustrate the structural specificity of the compounds of the invention, four close structural analogs of Compound I were synthesized and their activity compared to that of Compound I. In these tests dobutamine was used as a standard so that Compound I and the four structural analogs could be compared on a common basis. FIGS. 1 and 2 graphically compares dobutamine, Compound I and Compound V (the closest structural analog of dobutamine and Compound I).
# (§1) The data in FIGS. 1 and 2 and Table 2 were obtained on dogs anesthetized with sodium pentobarbital (30 mg/kg, i.v.). The animals were placed on artificial respiration and the chest was opened to expose the heart. A Walton-Brodie strain gauge arch was sutured to the right ventricle for measurement of cardiac contractility. Arterial blood pressure was measured from a catheter placed in the abdominal aorta. Cardiac contractility and arterial pressure were recorded continuously on a Grass polygraph. All drugs were dissolved and infused intravenously in 0.9% NaCl solution.
# Blood Pressure = change in diastolic blood pressure caused by a dose 4
# times larger than CC50 -
# left ventricular dP/dt = experiment: Inotropic response (left ventricular dP/dt) after buccal administration, anesthetized dogs; format: in vivo
# Description: The dogs were anesthetized with sodium pentobarbital as described above and a Millar® transducer-tip catheter positioned in the left ventircle after introduction through the left carotid artery. Left ventricular pressure was obtained from this catheter and electronically differentiated to obtain dP/dt.
# The dogs were placed on their backs, and their heads and noses positioned so that their hard palates were level. After an appropriate period to collect control dP/dt values, the test drug was applied to the hard palate. The test drugs were made up in a solution of 50% ethanol in distilled water adjusting concentrations so that the desired dose was contained in 2.5 ml of solution. The drug solution was applied to a 100 mm^2 area of the hard palate contained by fitting parafilm over the drug solution lying on the palate.
# cardiac contractility [1] = experiment: Intravenous infusion rates required to increase cardiac contractility by 50%, anesthetized dogs; format: in vivo
# cardiac contractility [2] = experiment: Cardiac contractility (inotropic effect), intravenous infusion, anesthetized open-chest dogs, strain gauge arch on right ventricle; format: in vivo; conditions: for Inotropic Potency Relative to Dobutamine, Mean ± S.E.: i.v. infusion, based on CC50 (rate that increases contractility by 50%)
# Procedure: as §1
# [3] = Blood (plasma) levels during intravenous infusion in anesthetized dog, HPLC with electrochemical detection; format: in vivo; conditions: i.v. infusion 20 ug/kg/min; for concentration at 10 min / concentration at 20 min / concentration at 0.5 h: plasma, iv; for concentration at 10 min: infusion time 10 mins; for concentration at 20 min: infusion time 20 mins; for concentration at 0.5 h: infusion time 30 mins
# Procedure: The data in Table 1 were obtained from a dog anesthetized with sodium pentobarbital (30 mg/kg, i.v.). The right femoral vein was cannulated for administration of drug and the left femoral vein was used for withdrawal of blood samples. All blood samples were collected in heparinized chilled tubes. The blood was centrifuged to separate red cells and the plasma was frozen.
# After obtaining a control blood sample, dobutamine infusion at the rate of 20 ug/kg/min was maintained for 30 mins. During the infusion, blood samples were drawn at 10, 20, and 30 mins. One hour after completion of the dobutamine infusion, a second control sample of blood was drawn and an infusion of Compound I at 20 ug/kg/min was begun. Samples of blood were taken during the Compound I infusion at 10, 20, and 30 mins.
# The concentrations of Compound I and dobutamine in plasma were measured using HPLC with electrochemical detection. Chromatography was performed using a reverse-phase octadecylsilane (C18) column attached to an amperometric detector equipped with a glassy carbon electrode at a potential of +600 mV. The mobile phase consisted of acetonitrile:pH 3 buffer (15:85); the buffer (pH 3) contained 0.035M KH2 PO4, 0.003M citric acid and 0.002M Na2 EDTA. At a flow rate of 1.5 ml/min, Compound I, dobutamine and the internal standard for the assay (dioxymethylene derivative of dobutamine) eluted in […] respectively.
# In the assay procedure, control plasma (1 mil) spiked with 0, 20, 100, 300 and 500 ng/ml test drug was added to silanized glass tubes (13×128 mm) containing 100 ng of the internal standard as a solution in 100 ul of 5M K2 HPO4. The samples were mixed and extracted twice with 4 ml of ethyl acetate. Following centrifugation, the combined organic extracts were evaporated, the residue dissolved in […] of mobile phase and a 10-15 ul aliquot injected into the chromatograph. Calibration curves were constructed by plotting the peak height ratios of test drug to the internal standard over the concentration range and interpolation of unknown plasma concentrations from the fitted line.
# cardiac contractility [4] = experiment: Inotropic response (LV dP/dt) when swallowed, conscious instrumented dogs; format: in vivo; conditions: 5 mg/kg oral capsule
# Procedure: To test the effectiveness of Compound I when swallowed, five previously trained dogs, instrumented with a miniature pressure transducer for measurement of cardiac contractility were used. On different days the conscious dogs were tested with placebo, dobutamine (5 mg/kg) or Compound I (5 mg/kg).
# Several months prior to doing the procedure described above, a minature pressure transducer was mounted in the left ventricle of each dog's heart. The dogs were trained to swallow capsules and lie quietly for up to 3 hours. During this time, continuous recording of left ventricular pressure was made on a Grass polygraph. Also recorded was an electronically differentiated signal on the left ventricular pressure. This differential is referred to as LV dP/dt. This LV dP/dt is the rate that the left ventricle develops pressure and is accepted as an index of cardiac contractility.
# On each day of testing the dogs were forced to swallow a gelatin capsule that was either empty (placebo), or contained dobutamine (5 mg/kg) or Compound I (5 mg/kg). Recordings were then made of cardiac contractility for 2 hours after the dog swallowed the capsule.
# [5] = Buccal absorption of ester relative to parent (buccal versus intravenous potency comparison); format: in vivo, dogs; conditions: buccal versus i.v. potency, Compound I-A vs Compound I
# Description: Yet by the buccal route of administration, the ester was more than twice as potent as its parent. Therefore, the ester derivative was better absorbed through the buccal mucosa by a factor of more than eighteen times than was the parent compound.
# [6] = test system: cardiac beta1 adrenergic receptors; conditions: background, Tuttle and Mills, Circ. Res. 36: 185, 1975; cited from earlier work
# [7] = background; cited from earlier work
compound,measurement,setting,value
"CC(CCc1cccc(C(N)=O)c1)NCCc1ccc(O)c(O)c1 (stereo not shown) [Compound I, N-[2-(3,4-dihydroxyphenyl)ethyl]-1-methyl-3-(3-carbamoylphenyl)propylaminehydrochloride]","Blood Pressure, Mean ± S.E. (change in diastolic blood pressure)",diastolic blood pressure,5.3 ± 4.5
same,effect on blood pressure,diastolic blood pressure,no significant change in blood pressure; also recorded: no greater than that of dobutamine
same,"Inotropic Response, Percent Change from Control, Mean ± S.E. (peak change in left ventricular dP/dt)",left ventricular dP/dt; 2 mg/kg,16.6 ± 6%
same,Intravenous infusion rate required to increase cardiac contractility by 50%,"cardiac contractility [1]; Dog #1, i.v.",0.29 µg/kg/min
same,Intravenous infusion rate required to increase cardiac contractility by 50%,"cardiac contractility [1]; Dog #2, i.v.",0.097 µg/kg/min
same,dose relative to that of dobutamine required for equivalent inotropic effect,cardiac contractility [2]; i.v.,about a tenth
same,times more potent than dobutamine,cardiac contractility [2]; i.v.,about ten
same,"Inotropic Potency Relative to Dobutamine, Mean ± S.E.",cardiac contractility [2],9.1 ± 2.4
same,Blood levels compared with dobutamine,[3],higher blood levels than dobutamine
same,concentration at 10 min,[3],417 ng/mL
same,concentration at 20 min,[3],451 ng/mL
same,concentration at 0.5 h,[3],874 ng/mL
same,inotropic response when swallowed,cardiac contractility [4],strong inotropic response; also recorded: effective when swallowed
same,persistence of inotropic response when swallowed,cardiac contractility [4],more than two
"CC(CCc1cccc(C(N)=O)c1)NCCc1ccc(OC(=O)C(C)C)c(OC(=O)C(C)C)c1 (stereo not shown) [Compound I-A, N[2-(3,4-diisobutyryloxyphenyl)ethyl]-1-methyl-3-(3-carbamoylphenyl)propylamine hydrochloride]","Inotropic Response, Percent Change from Control, Mean ± S.E. (peak change in left ventricular dP/dt)",left ventricular dP/dt; 1.39 mg/kg,61 ± 3%
same,"inotropic response, buccal",left ventricular dP/dt; anesthetized dogs,the most effective by this route
same,buccal potency relative to Compound I,"left ventricular dP/dt; molar basis, anesthetized dogs",more than twice
same,Dose Ratio (Compound I-A to Compound I),"cardiac contractility [1]; Dog #1, i.v.",9.6
same,Intravenous infusion rate required to increase cardiac contractility by 50%,"cardiac contractility [1]; Dog #1, i.v.",2.8 µg/kg/min
same,Dose Ratio (Compound I-A to Compound I),"cardiac contractility [1]; Dog #2, i.v.",12.9
same,Intravenous infusion rate required to increase cardiac contractility by 50%,"cardiac contractility [1]; Dog #2, i.v.",1.25 µg/kg/min
same,times less potent than parent catechol (Compound I),cardiac contractility [1]; intravenous infusion,more than nine
same,factor of better absorption through the buccal mucosa than parent compound,[5],more than eighteen
CC(CCc1cccc(C(N)=O)c1)NCCc1ccc(OC(=O)C(C)(C)C)c(OC(=O)C(C)(C)C)c1 (stereo not shown) [Compound I-B],"Inotropic Response, Percent Change from Control, Mean ± S.E. (peak change in left ventricular dP/dt)",left ventricular dP/dt; 1.39 mg/kg,13 ± 7%
same,"inotropic response, buccal",left ventricular dP/dt; anesthetized dogs,small response
NC(=O)c1cccc(CCCNCCc2ccc(O)c(O)c2)c1 [Compound III],"Blood Pressure, Mean ± S.E. (change in diastolic blood pressure)",diastolic blood pressure,22.3 ± 16.2
same,effect on blood pressure,diastolic blood pressure,undesired elevation in blood pressure
same,inotropic potency,cardiac contractility [2]; i.v.,potency was reduced
same,"Inotropic Potency Relative to Dobutamine, Mean ± S.E.",cardiac contractility [2],1.4 ± 1
NC(=O)c1cccc(CCNCCc2ccc(O)c(O)c2)c1 [Compound II],"Blood Pressure, Mean ± S.E. (change in diastolic blood pressure)",diastolic blood pressure,-8 ± 5
same,effect on blood pressure,diastolic blood pressure,no rise in blood pressure
same,inotropic potency,cardiac contractility [2]; i.v.,not significantly better than that of dobutamine
same,"Inotropic Potency Relative to Dobutamine, Mean ± S.E.",cardiac contractility [2],1.5 ± 0.1
NC(=O)c1ccc(CCNCCc2ccc(O)c(O)c2)cc1 [Compound IV],"Blood Pressure, Mean ± S.E. (change in diastolic blood pressure)",diastolic blood pressure,26 ± 10
same,effect on blood pressure,diastolic blood pressure,the blood pressure side effect reappears
same,"Inotropic Potency Relative to Dobutamine, Mean ± S.E.",cardiac contractility [2],1.38 ± 0.2
CC(CCc1ccc(C(N)=O)cc1)NCCc1ccc(OC(=O)C(C)C)c(OC(=O)C(C)C)c1 (stereo not shown) [Compound V-A],"Inotropic Response, Percent Change from Control, Mean ± S.E. (peak change in left ventricular dP/dt)",left ventricular dP/dt; 1.39 mg/kg,No response
same,"inotropic response, buccal",left ventricular dP/dt; anesthetized dogs,no response
CC(CCc1ccc(C(N)=O)cc1)NCCc1ccc(O)c(O)c1 (stereo not shown) [Compound V],effect on blood pressure,diastolic blood pressure,dangerous rise in blood pressure
same,cardiac potency relative to that with carbamyl group in meta position (Compound I),cardiac contractility [2]; i.v.,less than a third
same,"Inotropic Potency Relative to Dobutamine, Mean ± S.E.",cardiac contractility [2],2.9 ± 0.3
"CC(CCc1ccc(O)cc1)NCCc1ccc(O)c(O)c1 (stereo not shown) [Dobutamine, reference compound]","Blood Pressure, Mean ± S.E. (change in diastolic blood pressure)",diastolic blood pressure,7.8 ± 4.5
same,cardioselectivity,[6],cardioselective in its actions
same,"Inotropic Response, Percent Change from Control, Mean ± S.E. (peak change in left ventricular dP/dt)",left ventricular dP/dt; 5 mg/kg,2.7 ± 2%
same,concentration at 10 min,[3],155 ng/mL
same,concentration at 20 min,[3],176 ng/mL
same,concentration at 0.5 h,[3],158 ng/mL
same,inotropic response when swallowed,cardiac contractility [4],did not produce a response significantly better than the placebo
same,clearance from the blood,[7],rapidly cleared from the blood
